SMILES strings stand for the structures.

The test system of the experiment is Mus musculus. Put plainly: Antiepileptic potency in the maximal electroshock seizure test. Compound was administered orally to male NMRI mice. The following applies: po. The experiment is classed as functional.
`O=C1NC(=O)C(c2ccccc2)(c2ccccc2)N1` [PHENYTOIN] came in with a median effective dose (ED50) of 28 µmol/kg. `O=C1NCNC1(c1ccccc1)c1ccccc1` [DOXENITOIN]: the ED50 was determined as 129 µmol/kg. For `CC1CC(c2ccccc2)(c2ccccc2)C(=O)N1C` (stereo unspecified), the ED50 worked out at 3830 µmol/kg. The same measure for `CN1C(=O)CC(c2ccccc2)(c2ccccc2)C1=O`: 357 µmol/kg; for `CN1C(=O)NC(c2ccccc2)(c2ccccc2)C1=O`: 149 µmol/kg; for `O=C1CC(c2ccccc2)(c2ccccc2)C(=O)N1`: 107 µmol/kg.

For the origin of these results see ChEMBL document CHEMBL1122751, “Structure-activity relationships of phenytoin-like anticonvulsant drugs” (1984).
